# Read-outs that look alike come from different tables or passages of the source.
# Tests used:
# in vitro [1] = assay: in vitro; design: species or system HB2, CCD841; conditions: human, hek293 cells
# in vitro [2] = assay: in vitro; design: species or system CCD841, HEK293; conditions: human, hb2 cells, read-out: HB-2 Cells Viability (%)
# OTUB2 (OTUB2A) = target: T1, OTUB2 (OTUB2A) (Homo sapiens, UniProt Q96DC9); design: Intact protein LC/MS covalent labelling, fragments in pools of five, 200 uM each, 4 °C; conditions: 24 h, 4 °C, pool of five; 200 µM; covalent
# T1 construct: full length residues 1-234, E. coli BL21(DE3)-R3, His tag removed by TEV, construct 27312 Da
# T1 sequence (Q96DC9 1-234): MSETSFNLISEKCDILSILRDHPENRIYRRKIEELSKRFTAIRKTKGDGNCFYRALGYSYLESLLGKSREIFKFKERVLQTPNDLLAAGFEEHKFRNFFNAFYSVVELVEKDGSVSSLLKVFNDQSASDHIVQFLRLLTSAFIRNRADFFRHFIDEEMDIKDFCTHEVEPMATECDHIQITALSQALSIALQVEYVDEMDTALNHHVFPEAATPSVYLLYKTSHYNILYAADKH
# PCAF = target: T2, PCAF (Homo sapiens, UniProt Q92831); design: Intact protein LC/MS covalent labelling, fragments in pools of five, 200 uM each, 4 °C; conditions: 24 h, 4 °C, pool of five; 200 µM; covalent
# T2 construct: gene KAT2B
# T2 sequence (Q92831 whole entry, the tested form may be a part): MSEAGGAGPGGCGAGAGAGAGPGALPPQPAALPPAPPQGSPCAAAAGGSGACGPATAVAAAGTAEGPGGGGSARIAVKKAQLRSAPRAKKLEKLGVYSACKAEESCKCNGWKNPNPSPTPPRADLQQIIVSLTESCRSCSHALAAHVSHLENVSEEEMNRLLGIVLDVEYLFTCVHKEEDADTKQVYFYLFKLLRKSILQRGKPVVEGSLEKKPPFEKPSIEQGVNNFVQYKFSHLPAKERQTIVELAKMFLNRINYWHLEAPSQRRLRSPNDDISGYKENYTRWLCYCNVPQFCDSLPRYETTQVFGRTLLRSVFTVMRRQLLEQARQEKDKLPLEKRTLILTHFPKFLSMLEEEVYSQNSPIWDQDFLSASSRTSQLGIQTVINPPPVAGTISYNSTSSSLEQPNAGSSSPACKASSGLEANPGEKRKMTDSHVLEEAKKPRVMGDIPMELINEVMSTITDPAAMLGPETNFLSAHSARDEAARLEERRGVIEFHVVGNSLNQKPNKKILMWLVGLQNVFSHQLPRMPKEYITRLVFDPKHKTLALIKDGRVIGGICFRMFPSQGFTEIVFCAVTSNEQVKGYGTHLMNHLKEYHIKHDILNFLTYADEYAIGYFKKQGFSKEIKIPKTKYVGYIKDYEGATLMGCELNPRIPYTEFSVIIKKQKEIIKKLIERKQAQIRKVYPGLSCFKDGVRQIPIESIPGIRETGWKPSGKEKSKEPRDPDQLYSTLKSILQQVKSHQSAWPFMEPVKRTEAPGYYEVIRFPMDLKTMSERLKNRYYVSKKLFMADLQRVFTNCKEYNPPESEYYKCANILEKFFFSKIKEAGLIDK
# BSA = target: T3, BSA (Bos taurus, UniProt P02769); design: Intact protein LC/MS covalent labelling, fragments in pools of five, 200 uM each, 4 °C; conditions: 24 h, 4 °C, pool of five; 200 µM; covalent
# T3 construct: gene ALB
# T3 sequence (P02769 whole entry, the tested form may be a part): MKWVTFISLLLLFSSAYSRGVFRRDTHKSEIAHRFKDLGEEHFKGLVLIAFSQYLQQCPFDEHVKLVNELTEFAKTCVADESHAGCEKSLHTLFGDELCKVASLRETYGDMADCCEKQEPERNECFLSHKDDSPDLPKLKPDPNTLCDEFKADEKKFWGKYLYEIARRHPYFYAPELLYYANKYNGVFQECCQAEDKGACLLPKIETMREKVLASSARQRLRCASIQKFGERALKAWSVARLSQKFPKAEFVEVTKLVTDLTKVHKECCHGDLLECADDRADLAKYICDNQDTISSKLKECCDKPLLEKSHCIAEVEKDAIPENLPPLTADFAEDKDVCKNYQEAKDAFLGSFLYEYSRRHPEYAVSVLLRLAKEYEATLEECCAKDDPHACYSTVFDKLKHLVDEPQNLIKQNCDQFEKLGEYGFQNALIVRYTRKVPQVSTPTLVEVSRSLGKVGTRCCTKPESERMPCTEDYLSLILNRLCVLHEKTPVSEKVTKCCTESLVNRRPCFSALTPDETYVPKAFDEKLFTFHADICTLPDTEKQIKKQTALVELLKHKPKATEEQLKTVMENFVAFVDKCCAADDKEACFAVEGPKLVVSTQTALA
# NUDT7 = target: T4, NUDT7 (Homo sapiens, UniProt P0C024); design: Intact protein LC/MS covalent labelling, fragments in pools of five, 200 uM each, 4 °C; conditions: 24 h, 4 °C, pool of five; 200 µM; covalent
# T4 construct: residues 14-235, E. coli, pNIC28-Bsa4, N-terminal His6 tag removed by TEV, construct 26672 Da
# T4 sequence (P0C024 14-235): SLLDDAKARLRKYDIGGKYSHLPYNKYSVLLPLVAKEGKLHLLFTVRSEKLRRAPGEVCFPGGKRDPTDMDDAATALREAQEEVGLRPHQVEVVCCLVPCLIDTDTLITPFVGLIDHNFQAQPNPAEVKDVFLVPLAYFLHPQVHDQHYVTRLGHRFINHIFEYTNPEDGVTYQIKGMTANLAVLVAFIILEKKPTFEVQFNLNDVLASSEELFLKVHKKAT
# in vitro [3] = assay: in vitro; design: species or system HB2, HEK293; conditions: human, ccd841 cells
SMILES,"viability at 48 h, 10 µM (in vitro [1]) [%]","viability at 48 h, 10 µM (in vitro [2]) [%]",OTUB2 (OTUB2 (OTUB2A)),PCAF (PCAF),BSA (BSA),NUDT7 (NUDT7),"viability at 48 h, 10 µM (in vitro [3]) [%]"
O=C(CCl)NC(=O)c1ccco1 [PCM-0102195],87.3,98,0,0,0,0,109
Cc1nn(-c2ccccc2)c(C)c1NC(=O)CCl [PCM-0102501],62.2,83.2,0.09,0,0,0.09,68.3
Cc1ccc(CNC(=O)CCl)s1 [PCM-0102973],106,98,0.75,0,0.19,0.11,90.8
O=C(CCl)Nc1ccc(Cl)c([N+](=O)[O-])c1 [PCM-0102316],1.1,0.4,0.36,0,0,0.28,1
C=CC(=O)NCC1(O)CCS(=O)(=O)CC1 [PCM-0102691],103,104,0.2,0,0,0,104
Cl.O=C(CCl)N1CCN(c2ccccn2)CC1 [PCM-0102213],81.6,84.5,0,0,0,0,94.7
CCNC(=O)NC(=O)CCl [PCM-0102654],82.2,90.8,0,0,0,0,92.6
C=CC(=O)N1CCc2c(ncn(CC)c2=O)C1 [PCM-0103074],100,101,0,0,0,0,115
C=CC(=O)NC(=O)NCc1ccccc1 [PCM-0102834],17.9,23,0,0,0,0.35,57.4
CC(C)NC(=O)NC(=O)CCl [PCM-0102504],66.9,92,0,0,0,0,81.5
Cc1ccc(Cl)cc1NC(=O)CCl [PCM-0102354],9.3,16.3,0,0,0,0,44.6
CS(=O)(=O)N1CCN(C(=O)CCl)CC1 [PCM-0102417],70.1,89.4,0,0,0,0,78.8
C=CC(=O)N1CCN(C(=O)C23CC4CC(CC(C4)C2)C3)CC1 [PCM-0102682],72.7,102,0,0,0,0,103
C=CC(=O)NC1CCCn2nc(C)nc21 (stereo not drawn) [PCM-0103083],115,105,0,0,0,0,116
O=C(CCl)N1CCN(S(=O)(=O)c2ccc(F)cc2)CC1 [PCM-0102237],66.9,78.8,0,0,0,0.06,77
O=C1CN(C(=O)CCl)CCN1 [PCM-0103008],86.5,95.3,0,0,0,0,92.8
Cc1cc(NC(=O)CCl)ccc1N1CCCC1 [PCM-0102175],2.9,10.2,0.39,0,0.15,0.13,45.1
Cl.O=C(CCl)NCc1cccnc1 [PCM-0102497],107,106,0.05,0,0,0,90.2
O=C(CCl)N1CCc2ccccc21 [PCM-0102160],16.3,6.1,0,0,0,0,44.6
O=C(CCl)NCC1CCCc2ccccc21 (stereo not drawn) [PCM-0102794],53.5,67.3,0.34,0,0,0,66.7
CC1(C)C(=O)Nc2ccccc2N1C(=O)CCl [PCM-0102546],57.2,48,0.32,0,0,0.18,78.5
O=C(CCl)N1CCN(S(=O)(=O)c2c(F)cccc2F)CC1 [PCM-0102201],11.1,9.5,0,0,0,0,57.6
Cc1ccc(NC(=O)CCl)cc1 [PCM-0102320],8.7,29.1,0.24,0,0,0,63.2
CC(C)(C)NC(=O)CNC(=O)CCl [PCM-0102817],101,102,0.41,0,0,0,87.5

# Source: paper PMC6556873, “Rapid Covalent-Probe Discovery by Electrophile-Fragment Screening” (Journal of the American Chemical Society, 2019)
